Experimental data from patent US12649750B2, “Macrocyclic compounds, compositions, and methods of using thereof” (Sionna Therapeutics Inc., priority 2022, dated 2026).

Legend:
NBD1 = molecular target: T1, NBD1 (Homo sapiens, UniProt P13569); test: Aggregation analysis using differential static light scattering (DSLS), thermal stability of NBD1 (ΔTagg); assay type: binding; conditions: ΔTagg versus DMSO control, NBD1 0.2 mg/ml
T1 construct: Purified recombinant NBD1 was produced using previously described methods; made in house
T1 sequence (P13569 423-646 limits assumed): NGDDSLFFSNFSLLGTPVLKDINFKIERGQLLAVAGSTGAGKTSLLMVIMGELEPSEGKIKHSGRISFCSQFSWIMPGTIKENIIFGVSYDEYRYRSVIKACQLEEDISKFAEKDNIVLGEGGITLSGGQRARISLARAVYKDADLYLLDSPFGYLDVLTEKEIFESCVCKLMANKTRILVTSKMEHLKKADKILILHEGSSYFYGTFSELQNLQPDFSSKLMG
Summary of the method: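 Purified recombinant NBD1 at 0.2 mg/ml in Tris buffer pH7.6 with 2 mM ATP, 5 mM MgCl2, 2 mM DTT and 1% glycerol was mixed with DMSO-dissolved compounds under mineral oil. Plates were heated at 1° C. per minute to 70° C., light scattering imaged every 0.5° C.; Tagg from curve inflection, minus DMSO-control mean.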

CFTR = molecular target: T2, CFTR (Homo sapiens, UniProt P13569, DEL508-508); test: TECC24 AUC fold over DMSO @10 μM, CFTR-mediated transepithelial chloride transport in CF-HBE cells; assay type: cell-based; conditions: test agent AUC divided by DMSO vehicle AUC, primary CF-HBE cells, ΔF508 homozygous donor, 48 hours incubation
T2 construct: Primary human bronchial epithelial cells from a ΔF508 homozygous CF donor; host or cells: primary human bronchial epithelial cells (CF-HBE), ΔF508 homozygous donor
T2 sequence (P13569 with tags, fused parts or gaps DEL508-508): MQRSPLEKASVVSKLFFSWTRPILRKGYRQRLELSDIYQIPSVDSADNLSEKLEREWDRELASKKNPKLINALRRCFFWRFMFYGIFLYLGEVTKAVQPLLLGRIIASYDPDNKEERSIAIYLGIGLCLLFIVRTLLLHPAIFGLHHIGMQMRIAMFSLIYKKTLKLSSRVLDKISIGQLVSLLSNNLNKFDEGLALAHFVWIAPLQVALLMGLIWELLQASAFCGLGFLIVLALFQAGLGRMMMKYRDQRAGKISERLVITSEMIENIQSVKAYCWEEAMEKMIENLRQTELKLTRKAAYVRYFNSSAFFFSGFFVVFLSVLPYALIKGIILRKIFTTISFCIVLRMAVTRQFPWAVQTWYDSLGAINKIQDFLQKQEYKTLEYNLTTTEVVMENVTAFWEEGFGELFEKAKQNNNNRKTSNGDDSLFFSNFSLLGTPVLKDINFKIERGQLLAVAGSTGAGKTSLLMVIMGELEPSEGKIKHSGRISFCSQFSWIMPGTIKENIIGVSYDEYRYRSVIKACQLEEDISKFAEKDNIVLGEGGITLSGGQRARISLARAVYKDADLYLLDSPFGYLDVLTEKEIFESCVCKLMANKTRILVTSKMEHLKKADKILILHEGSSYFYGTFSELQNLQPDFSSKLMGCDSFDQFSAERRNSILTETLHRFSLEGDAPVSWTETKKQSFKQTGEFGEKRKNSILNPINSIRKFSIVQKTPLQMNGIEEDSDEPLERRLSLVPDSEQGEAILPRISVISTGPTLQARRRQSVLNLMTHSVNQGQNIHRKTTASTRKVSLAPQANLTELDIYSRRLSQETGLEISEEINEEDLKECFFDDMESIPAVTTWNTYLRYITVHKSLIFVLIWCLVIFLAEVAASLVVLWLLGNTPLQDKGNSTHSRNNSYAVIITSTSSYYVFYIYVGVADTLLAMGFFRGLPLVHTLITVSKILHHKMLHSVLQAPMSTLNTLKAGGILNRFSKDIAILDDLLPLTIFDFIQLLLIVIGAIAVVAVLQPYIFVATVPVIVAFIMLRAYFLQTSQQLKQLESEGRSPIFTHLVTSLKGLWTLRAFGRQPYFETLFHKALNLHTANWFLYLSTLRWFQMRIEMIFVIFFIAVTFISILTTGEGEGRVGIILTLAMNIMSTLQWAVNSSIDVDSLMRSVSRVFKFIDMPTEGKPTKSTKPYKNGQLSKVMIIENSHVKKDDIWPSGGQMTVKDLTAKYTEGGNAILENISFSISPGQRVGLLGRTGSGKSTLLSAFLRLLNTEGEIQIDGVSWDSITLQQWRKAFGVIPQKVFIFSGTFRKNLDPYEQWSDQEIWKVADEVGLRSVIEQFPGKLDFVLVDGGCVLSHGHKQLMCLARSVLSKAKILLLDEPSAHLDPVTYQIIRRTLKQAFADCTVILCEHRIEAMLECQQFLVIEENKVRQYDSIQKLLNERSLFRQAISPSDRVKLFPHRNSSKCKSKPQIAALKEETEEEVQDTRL
Summary of the method: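 Value is ratio of test-agent to DMSO AUC of equivalent transepithelial Cl− current, integrated from forskolin (10 μM) stimulation to CFTR inhibitor-172 (20 μM) block, with benzamil 10 μM present. CF-HBE (ΔF508/ΔF508) cultures had 48 h compound exposure at 10 μM, 36.5° C before recording.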

Compound | DSLS 3D (100 μM ΔT) (NBD1) | TECC (AUC, 10 μM) (CFTR)
COCCOCCOCCOC(=O)[C@@H](C)Cc1cccc(C2(C)CCCC(C)(C)CS(=O)(=O)CCc3c(c(F)cc4[nH]ccc34)Oc3ccc(F)c(c3)-c3nc2nn3C)c1 (single isomer, unassigned) [Compound 165] | B (a value above 5 °C and less than or equal to 10 °C is marked “B”) | C (a value between 20 and 80 is marked “C”)
C/C(=C\c1cccc(C2(C)CCCC(C)(C)CS(=O)(=O)CCc3c(c(F)cc4[nH]ccc34)Cc3ccc(F)c(c3)-c3nc2nn3C)c1)C(=O)O (single isomer, unassigned) [Compound 166A, (E)-3-[3-(22,28-difluoro-3,6,10,10-tetramethyl-12,12-dioxo-12λ6-thia-3,4,19,30-tetrazapentacyclo-[23.3.1.12,5.015,23.016,20]triaconta-1(29),2(30),4,15,17,20,22,25,27-nonaen-6-yl)phenyl]-2-methyl-prop-2-enoic Acid] | C (a value greater than 10 °C and less than or equal to 25 °C is marked “C”) | B (a value between 12-20 is marked “B”)
C/C(=C\c1cccc(C2(C)CCCC(C)(C)CS(=O)(=O)CCc3c(c(F)cc4[nH]ccc34)Cc3ccc(F)c(c3)-c3nc2nn3C)c1)C(=O)O (single isomer, unassigned) [Compound 166B, (E)-3-[3-(22,28-difluoro-3,6,10,10-tetramethyl-12,12-dioxo-12λ6-thia-3,4,19,30-tetrazapentacyclo-[23.3.1.12,5.015,23.016,20]triaconta-1(29),2(30),4,15,17,20,22,25,27-nonaen-6-yl)phenyl]-2-methyl-prop-2-enoic Acid] | A (an ΔTagg value less than or equal to 5 °C is marked “A”) | A (a TECC value less than 12 is marked “A”)
C[C@H](Cc1cccc(C2(C)CCCC(C)(C)CS(=O)(=O)CCc3c(c(F)cc4[nH]ccc34)Cc3ccc(F)c(c3)-c3nc2nn3C)c1)C(=O)O (single isomer, unassigned) [Compound 169A] | C (a value greater than 10 °C and less than or equal to 25 °C is marked “C”) | A (a TECC value less than 12 is marked “A”)
C[C@H](Cc1cccc(C2(C)CCCC(C)(C)CS(=O)(=O)CCc3c(c(F)cc4[nH]ccc34)Cc3ccc(F)c(c3)-c3nc2nn3C)c1)C(=O)O (single isomer, unassigned) [Compound 169B] | A (an ΔTagg value less than or equal to 5 °C is marked “A”) | A (a TECC value less than 12 is marked “A”)
CC1(C)CCCC(C)(c2cccc(CC3(C(=O)O)CC3)c2)c2c[nH]c(n2)-c2cc(ccc2F)Oc2c(F)cc3[nH]ccc3c2CCS(=O)(=O)C1 (single isomer, unassigned) [Compound 171A, 1-[[3-(22,28-difluoro-6,10,10-trimethyl-12,12-dioxo-24-oxa-12λ6-thia-3,19,30-triazapentacyclo[23.3.1.12,5.015,23.016,20]triaconta-1(29),2(30),4,15,17,20,22,25,27-nonaen-6-yl)phenyl]methyl]cyclopropanecarboxylic Acid] | A (an ΔTagg value less than or equal to 5 °C is marked “A”) | A (a TECC value less than 12 is marked “A”)
CC1(C)CCCC(C)(c2cccc(CC3(C(=O)O)CC3)c2)c2c[nH]c(n2)-c2cc(ccc2F)Oc2c(F)cc3[nH]ccc3c2CCS(=O)(=O)C1 (single isomer, unassigned) [Compound 171B, 1-[[3-(22,28-difluoro-6,10,10-trimethyl-12,12-dioxo-24-oxa-12λ6-thia-3,19,30-triazapentacyclo[23.3.1.12,5.015,23.016,20]triaconta-1(29),2(30),4,15,17,20,22,25,27-nonaen-6-yl)phenyl]methyl]cyclopropanecarboxylic Acid] | C (a value greater than 10 °C and less than or equal to 25 °C is marked “C”) | A (a TECC value less than 12 is marked “A”)
C[C@@H](Cc1cccc(C2(C)CCCC(C)(C)CS(=O)(=O)CCc3c(c(F)cc4[nH]ccc34)[S+]([O-])c3ccc(F)c(c3)-c3nc2nn3C)n1)C(=O)O (single isomer, unassigned) [Compound 179A] | B (a value above 5 °C and less than or equal to 10 °C is marked “B”) | A (a TECC value less than 12 is marked “A”)
C[C@@H](Cc1cccc(C2(C)CCCC(C)(C)CS(=O)(=O)CCc3c(c(F)cc4[nH]ccc34)[S+]([O-])c3ccc(F)c(c3)-c3nc2nn3C)n1)C(=O)O (single isomer, unassigned) [Compound 179B] | A (an ΔTagg value less than or equal to 5 °C is marked “A”) | A (a TECC value less than 12 is marked “A”)
C[C@@H](Cc1cccc(C2(C)CCCC(C)(C)CS(=O)(=O)CCc3c(c(F)cc4[nH]ccc34)[S+]([O-])c3ccc(F)c(c3)-c3nc2nn3C)n1)C(=O)O (single isomer, unassigned) [Compound 179C] | C (a value greater than 10 °C and less than or equal to 25 °C is marked “C”) | C (a value between 20 and 80 is marked “C”)
C[C@@H](Cc1cccc(C2(C)CCCC(C)(C)CS(=O)(=O)CCc3c(c(F)cc4[nH]ccc34)[S+]([O-])c3ccc(F)c(c3)-c3nc2nn3C)n1)C(=O)O (single isomer, unassigned) [Compound 179D] | A (an ΔTagg value less than or equal to 5 °C is marked “A”) | A (a TECC value less than 12 is marked “A”)
C[C@@H](Cc1cccc(C2(C)CCCC(C)(C)CS(=O)(=O)CCc3c(c(F)cc4[nH]ccc34)S(=O)(=O)c3ccc(F)c(c3)-c3nc2nn3C)n1)C(=O)O (single isomer, unassigned) [Compound 180A] | C (a value greater than 10 °C and less than or equal to 25 °C is marked “C”) | B (a value between 12-20 is marked “B”)
C[C@@H](Cc1cccc(C2(C)CCCC(C)(C)CS(=O)(=O)CCc3c(c(F)cc4[nH]ccc34)S(=O)(=O)c3ccc(F)c(c3)-c3nc2nn3C)n1)C(=O)O (single isomer, unassigned) [Compound 180B] | A (an ΔTagg value less than or equal to 5 °C is marked “A”) | A (a TECC value less than 12 is marked “A”)
C[C@H](Cc1cccc(C2(C)CCCC(C)(C)CS(=O)(=O)CCc3c(c(F)cc4[nH]ccc34)[S+]([O-])c3ccc(F)c(c3)-c3nc2nn3C)n1)C(=O)O (single isomer, unassigned) [Compound 181A] | B (a value above 5 °C and less than or equal to 10 °C is marked “B”) | A (a TECC value less than 12 is marked “A”)
C[C@H](Cc1cccc(C2(C)CCCC(C)(C)CS(=O)(=O)CCc3c(c(F)cc4[nH]ccc34)[S+]([O-])c3ccc(F)c(c3)-c3nc2nn3C)n1)C(=O)O (single isomer, unassigned) [Compound 181B] | A (an ΔTagg value less than or equal to 5 °C is marked “A”) | A (a TECC value less than 12 is marked “A”)
C[C@H](Cc1cccc(C2(C)CCCC(C)(C)CS(=O)(=O)CCc3c(c(F)cc4[nH]ccc34)[S+]([O-])c3ccc(F)c(c3)-c3nc2nn3C)n1)C(=O)O (single isomer, unassigned) [Compound 181C] | A (an ΔTagg value less than or equal to 5 °C is marked “A”) | A (a TECC value less than 12 is marked “A”)
C[C@H](Cc1cccc(C2(C)CCCC(C)(C)CS(=O)(=O)CCc3c(c(F)cc4[nH]ccc34)[S+]([O-])c3ccc(F)c(c3)-c3nc2nn3C)n1)C(=O)O (single isomer, unassigned) [Compound 181D] | C (a value greater than 10 °C and less than or equal to 25 °C is marked “C”) | A (a TECC value less than 12 is marked “A”)
C[C@H](Cc1cccc(C2(C)CCCC(C)(C)CS(=O)(=O)CCc3c(c(F)cc4[nH]ccc34)Oc3cc(ccn3)-c3nc2nn3C)c1)C(=O)O (single isomer, unassigned) [Compound 184] | B (a value above 5 °C and less than or equal to 10 °C is marked “B”) | A (a TECC value less than 12 is marked “A”)
C[C@@H](Cc1cccc(C2(C)CCCC(C)(C)CS(=O)(=O)CCc3c(c(F)cc4[nH]ccc34)Oc3ccc(F)c(c3)-c3nc2nn3C)c1)C(=O)NO (single isomer, unassigned) [Compound 185] | C (a value greater than 10 °C and less than or equal to 25 °C is marked “C”) | B (a value between 12-20 is marked “B”)
C[C@@H](Cc1cccc(C2(C)CCCC(C)(C)CS(=O)(=O)CCc3c(c(F)cc4[nH]ccc34)Oc3ccc(F)c(c3)-c3nc2nn3C)c1)C(=O)N(C)O (single isomer, unassigned) [Compound 187] | B (a value above 5 °C and less than or equal to 10 °C is marked “B”) | A (a TECC value less than 12 is marked “A”)
CCONC(=O)[C@@H](C)Cc1cccc(C2(C)CCCC(C)(C)CS(=O)(=O)CCc3c(c(F)cc4[nH]ccc34)Oc3ccc(F)c(c3)-c3nc2nn3C)c1 (single isomer, unassigned) [Compound 188] | B (a value above 5 °C and less than or equal to 10 °C is marked “B”) | B (a value between 12-20 is marked “B”)
